Here are results for ten compounds from patent US20260317299A1, “PIKFYVE PROTEIN KINASE DEGRADATION AGENT AND USE THEREOF” (Shanghai Institute of Organic Chemistry, Chinese Academy of …, priority 2023, published 2026).

Molecules are shown by their SMILES.

The target of the experiment is T1, PIKfyve (Homo sapiens, UniProt Q9Y2I7).
T1 construct: endogenous in cells; host or cells: VCaP
T1 sequence (Q9Y2I7 whole entry): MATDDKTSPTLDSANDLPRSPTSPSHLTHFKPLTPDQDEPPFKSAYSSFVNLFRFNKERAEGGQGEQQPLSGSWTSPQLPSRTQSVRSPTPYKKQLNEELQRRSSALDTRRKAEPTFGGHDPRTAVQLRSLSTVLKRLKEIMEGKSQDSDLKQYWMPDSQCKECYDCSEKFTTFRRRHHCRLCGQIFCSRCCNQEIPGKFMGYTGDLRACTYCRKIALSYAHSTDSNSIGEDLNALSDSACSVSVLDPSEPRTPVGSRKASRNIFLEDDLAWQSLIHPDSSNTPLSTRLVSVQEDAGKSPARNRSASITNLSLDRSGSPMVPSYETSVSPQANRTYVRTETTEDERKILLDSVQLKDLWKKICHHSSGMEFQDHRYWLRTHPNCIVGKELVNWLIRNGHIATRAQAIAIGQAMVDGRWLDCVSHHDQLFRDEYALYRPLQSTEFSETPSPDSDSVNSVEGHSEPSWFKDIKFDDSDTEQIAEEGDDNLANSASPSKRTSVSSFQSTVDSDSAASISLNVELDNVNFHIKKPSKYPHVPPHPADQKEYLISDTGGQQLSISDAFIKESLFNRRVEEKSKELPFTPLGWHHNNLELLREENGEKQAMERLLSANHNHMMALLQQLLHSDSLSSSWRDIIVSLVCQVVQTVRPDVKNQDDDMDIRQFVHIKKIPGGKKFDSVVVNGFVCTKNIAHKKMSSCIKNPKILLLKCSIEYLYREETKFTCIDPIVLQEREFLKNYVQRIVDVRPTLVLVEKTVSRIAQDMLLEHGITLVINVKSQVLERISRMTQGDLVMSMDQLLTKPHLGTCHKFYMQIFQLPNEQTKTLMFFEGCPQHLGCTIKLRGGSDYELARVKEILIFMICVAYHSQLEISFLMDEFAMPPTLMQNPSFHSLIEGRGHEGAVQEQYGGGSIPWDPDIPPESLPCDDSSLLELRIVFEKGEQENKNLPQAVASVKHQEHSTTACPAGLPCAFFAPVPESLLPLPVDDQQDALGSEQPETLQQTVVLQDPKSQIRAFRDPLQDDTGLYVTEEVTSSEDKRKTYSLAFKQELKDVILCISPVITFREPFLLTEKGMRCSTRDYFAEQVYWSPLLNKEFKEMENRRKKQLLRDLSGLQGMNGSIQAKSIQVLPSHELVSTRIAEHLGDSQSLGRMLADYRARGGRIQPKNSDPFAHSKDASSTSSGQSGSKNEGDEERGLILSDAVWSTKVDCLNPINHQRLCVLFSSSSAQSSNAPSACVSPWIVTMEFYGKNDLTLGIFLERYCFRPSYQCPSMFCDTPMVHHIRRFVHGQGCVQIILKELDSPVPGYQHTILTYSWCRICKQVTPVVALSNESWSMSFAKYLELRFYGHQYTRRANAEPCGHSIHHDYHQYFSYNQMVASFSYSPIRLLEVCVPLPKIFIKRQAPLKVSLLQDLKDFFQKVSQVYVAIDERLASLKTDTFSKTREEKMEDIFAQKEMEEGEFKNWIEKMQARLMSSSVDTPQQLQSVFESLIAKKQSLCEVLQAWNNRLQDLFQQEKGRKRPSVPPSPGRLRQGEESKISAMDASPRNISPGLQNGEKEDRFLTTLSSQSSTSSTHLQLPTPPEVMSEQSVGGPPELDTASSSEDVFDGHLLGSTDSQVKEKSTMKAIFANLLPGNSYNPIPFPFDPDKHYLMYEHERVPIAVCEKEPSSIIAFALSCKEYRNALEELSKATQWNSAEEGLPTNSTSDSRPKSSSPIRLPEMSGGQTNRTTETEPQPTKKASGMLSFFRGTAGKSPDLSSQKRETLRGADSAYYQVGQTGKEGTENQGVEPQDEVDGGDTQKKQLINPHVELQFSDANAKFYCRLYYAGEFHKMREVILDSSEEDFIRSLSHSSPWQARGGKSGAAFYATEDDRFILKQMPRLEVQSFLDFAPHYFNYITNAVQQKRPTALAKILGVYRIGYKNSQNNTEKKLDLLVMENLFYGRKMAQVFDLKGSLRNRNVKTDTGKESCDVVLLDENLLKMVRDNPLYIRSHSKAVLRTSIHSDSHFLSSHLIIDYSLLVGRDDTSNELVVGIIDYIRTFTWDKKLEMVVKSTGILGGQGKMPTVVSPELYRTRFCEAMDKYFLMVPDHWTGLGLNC
In words: Degradation of PIKfyve proteins in VCaP tumor cells (24 h, Western blot). Conditions: 37° C., compared with DMSO control, WB, read-out: DC50 (concentration that achieves 50% degradation activity). The experiment is classed as cell-based. In outline:
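VCaP cells (5×10^6 cells/ml) treated with a range of compound concentrations at 37° C for 24 h, then lysed in SDS buffer. PIKfyve level measured by Western blot with GAPDH as loading control and ECL detection. DC50 is the concentration giving 50% degradation relative to DMSO control.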
In general terms: In western blotting, separated proteins are transferred to a membrane and probed.
For the compound `Cc1cccc(-c2ccn(-c3cc(N4CCOCC4)nc(OCCc4ccc(-c5ccc(NC(=O)CC[C@H](NC(=O)[C@@H]6C[C@@H](O)CN6C(=O)[C@@H](NC(=O)C6(F)CC6)C(C)(C)C)c6ccc(-c7scnc7C)cc6)cc5)cc4)n3)n2)c1` [Example 88, (2S,4R)-1-((S)-2-(1-fluorocyclopropane-1-carboxamido)-3,3-dimethylbutanoyl)-4-hydroxy-N—((S)-1-(4-(4-methylthiazol-5-yl)phenyl)-4-((4′-(2-((4-morpholino-6-(3-(m-tolyl)-1H-pyrazol-1-yl)pyrimidin-2-yl)oxy)ethyl)-[1,1′-biphenyl]-4-yl)amino)-4-oxobutyl)pyrrolidine-2-carboxamide], the DC50 lay within 1 to 100 nM. For the compound `Cc1cccc(/C=N/Nc2cc(N3CCOCC3)nc(OCCc3ccc(NC(=O)CCCCCCCNc4ccc5c(c4)C(=O)N(C4CCC(=O)NC4=O)C5=O)cc3)n2)c1` (stereo not shown) [Example 18, (E)-8-((2-(2,6-dioxopiperidin-3-yl)-1,3-dioxoisoindolin-5-yl)amino)-N-(4-(2-((4-(2-(3-methylbenzylidene)hydrazino)-6-morpholinopyrimidin-2-yl)oxy)ethyl)phenyl) octanamide], the DC50 was 100 to 10000 nM. Take `Cc1cccc(-c2ccn(-c3cc(N4CCOCC4)nc(OC4CCN(c5ccc(N6CCN(C(=O)CCCC[C@H](NC(=O)[C@@H]7C[C@@H](O)CN7C(=O)[C@@H](NC(=O)C7(F)CC7)C(C)(C)C)c7ccc(-c8scnc8C)cc7)CC6)cc5)CC4)n3)n2)c1` [Example 86, (2S,4R)-1-((S)-2-(1-fluorocyclopropane-1-carboxamido)-3,3-dimethylbutanoyl)-4-hydroxy-N—((S)-1-(4-(4-methylthiazol-5-yl)phenyl)-6-(4-(4-(4-((4-morpholino-6-(3-(m-tolyl)-1H-pyrazol-1-yl)pyrimidin-2-yl)oxy)piperidin-1-yl)phenyl)piperazin-1-yl)-6-oxohexyl) pyrrolidine-2-carboxamide]: the DC50 was in the range of 1 to 100 nM. Turning to `Cc1cccc(-c2ccn(-c3cc(N4CCOCC4)nc(OC4CCN(c5ccc(NC(=O)NC6CN(C(=O)CC[C@H](NC(=O)[C@@H]7C[C@@H](O)CN7C(=O)[C@@H](NC(=O)C7(F)CC7)C(C)(C)C)c7ccc(-c8scnc8C)cc7)C6)cc5)CC4)n3)n2)c1` [Example 81, (2S,4R)-1-((S)-2-(1-fluorocyclopropane-1-carboxamido)-3,3-dimethylbutanoyl)-4-hydroxy-N—((S)-1-(4-(4-methylthiazol-5-yl)phenyl)-4-(3-(3-(4-(4-((4-morpholino-6-(3-(m-tolyl)-1H-pyrazol-1-yl)pyrimidin-2-yl)oxy)piperidin-1-yl)phenyl)ureido)azetidin-1-yl)-4-oxobutyl)pyrrolidine-2-carboxamide], the DC50 fell in the range of 1 to 100 nM. On to `Cc1cccc(/C=N/Nc2cc(N3CCOCC3)nc(OCCc3ccc(NC(=O)CCCCCCCCC(=O)N[C@H](C(=O)N4C[C@H](O)C[C@H]4C(=O)N[C@@H](C)c4ccc(-c5scnc5C)cc4)C(C)(C)C)cc3)n2)c1` [Example 48], for which the DC50 lay within 1 to 100 nM. With `Cc1cccc(/C=N/Nc2cc(N3CCOCC3)nc(OCCc3ccc(NC(=O)CCCCCOc4ccc5c(c4)C(=O)N(C4CCC(=O)NC4=O)C5=O)cc3)n2)c1` (stereo not shown) [Example 8, (E)-6-((2-(2,6-dioxopiperidin-3-yl)-1,3-dioxoisoindolin-5-yl)oxy)-N-(4-(2-((4-(2-(3-methylbenzylidene)hydrazino)-6-morpholinopyrimidin-2-yl)oxy)ethyl)phenyl)hexanamide], the DC50 lay within 100 to 10000 nM.

For the compound `Cc1cccc(/C=N/Nc2cc(N3CCOCC3)nc(OCCc3ccc(NC(=O)CCCCCC(=O)N[C@H](C(=O)N4C[C@H](O)C[C@H]4C(=O)N[C@@H](C)c4ccc(-c5scnc5C)cc4)C(C)(C)C)cc3)n2)c1` [Example 47], the DC50 was 1 to 100 nM. Consider `Cc1cccc(/C=N/Nc2cc(N3CCOCC3)nc(OCCc3ccc(NC(=O)CNC(=O)COc4cc(-c5scnc5C)ccc4CNC(=O)[C@@H]4C[C@@H](O)CN4C(=O)[C@@H](NC(=O)C4(F)CC4)C(C)(C)C)cc3)n2)c1` [Example 54, (2S,4R)-1-((S)-2-(1-fluorocyclopropane-1-carboxamido)-3,3-dimethylbutanoyl)-4-hydroxy-N-(2-(2-((2-((4-(2-((4-(2-((E)-3-methylbenzylidene)hydrazino)-6-morpholinopyrimidin-2-yl)oxy)ethyl)phenyl)amino)-2-oxoethyl)amino)-2-oxoethoxy)-4-(4-methylthiazol-5-yl)benzyl)pyrrolidine-2-carboxamide], for which the DC50 was 1 to 100 nM. Next, `Cc1cccc(-c2ccn(-c3cc(N4CCOCC4)nc(OCCc4ccc(NC(=O)CCCCCNC(=O)COc5cc(-c6scnc6C)ccc5CNC(=O)[C@@H]5C[C@@H](O)CN5C(=O)[C@@H](NC(=O)C5(F)CC5)C(C)(C)C)cc4)n3)n2)c1` [Example 66, (2S,4R)-1-((S)-2-(1-fluorocyclopropane-1-carboxamido)-3,3-dimethylbutanoyl)-4-hydroxy-N-(4-(4-methylthiazol-5-yl)-2-(2-((6-((4-(2-((4-morpholino-6-(3-(m-tolyl)-1H-pyrazol-1-yl)pyrimidin-2-yl)oxy)ethyl)phenyl)amino)-6-oxohexyl)amino)-2-oxoethoxy)benzyl) pyrrolidine-2-carboxamide]: 1 to 100 nM; `Cc1cccc(/C=N/Nc2cc(N3CCOCC3)nc(OCCc3ccc(NC(=O)COc4cccc5c4C(=O)N(C4CCC(=O)NC4=O)C5=O)cc3)n2)c1` (stereo not shown) [Example 1, (E)-2-((2-(2,6-dioxopiperidin-3-yl)-1,3-dioxoisoindolin-4-yl)oxy)-N-(4-(2-((4-(2-(3-methylbenzylidene)hydrazino)-6-morpholinopyrimidin-2-yl)oxy)ethyl)phenyl)acetamide]: 100 to 10000 nM.
